# Source: PMC9092428, “Towards identification of protein–protein interaction stabilizers via inhibitory peptide-fragment hybrids using templated fragment ligation” (RSC Chemical Biology, 2022)
# Square brackets hold non-standard residues; d marks the D form. Peptide text beside a SMILES is read from it. * marks the point of attachment. 5FAM = O=C1OC2(c3ccc(O)cc3Oc3cc(O)ccc32)c2ccc(C(=O)*)cc21; pS = N[C@@H](COP(=O)(O)O)C(=O)O; Ahx = NCCCCCC(=O)O
# Legend:
# Format in all cases: binding
# 14-3-3η [1] = molecular target: T1, 14-3-3η (Homo sapiens, UniProt Q04917); assay: Dynamic ligation screen, FA competition at single concentration; details: 10 μM acetylated hydrazide peptide with 5 eq. aldehyde, 24 h room temperature, 1 μM 14-3-3η, 50 nM hDMX361–374^pSer367*, 50 mM NH4OAc, 10 mM aniline, 1 mM DTT; duplicates
# T1 construct: full length proteins were concentrated by centrifugation; His tag (pProEx HTb vector) (N); made in house; host or cells: E. coli BL21(DE3)
# T1 sequence (Q04917 1-246): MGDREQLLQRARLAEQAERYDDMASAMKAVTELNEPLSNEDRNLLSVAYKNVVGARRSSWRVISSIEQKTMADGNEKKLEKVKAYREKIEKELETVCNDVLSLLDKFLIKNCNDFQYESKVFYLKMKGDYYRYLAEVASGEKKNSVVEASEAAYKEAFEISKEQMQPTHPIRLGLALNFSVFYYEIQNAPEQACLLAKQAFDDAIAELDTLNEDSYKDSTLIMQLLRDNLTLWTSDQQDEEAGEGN
# Experimental: A fluorescence anisotropy (FA) competition assay was subsequently carried out using conditions previously found suitable for acylhydrazone formation (pH 6.5, 50 mM NH4OAc, 10 mM aniline) with added DTT (1 mM) to supress disulfide formation. hDMX361–369^pSer367Gly-hydrazide was used to compete with a tracer peptide: hDMX361–374^pSer367* for binding to 14-3-3η (Fig S2, ESI ^†). […] Initial attempts to screen in cocktails, established the aldehydes had no affect on their own (Fig. S3, ESI ^†). We then performed an assay where each aldehyde was screened individually with hDMX361–369^pSer367Gly-hydrazide. A decrease in anisotropy can be attributed to a particular hydrazone product, avoiding the additional step of product identification e.g. by HRMS, and, combines the equilibration step for hydrazone formation with 14-3-3η screening (Fig. 2a). […]
# Figure S3. […] Aldehydes were assessed as […]
# (§1) Screening was performed using fluorescence anisotropy competition assay, in 50 mM NH4Ac pH 6.5 buffer containing 10 mM aniline, 1 mM DTT. […]
# Screening was performed using 10 μM acetylated hydrazide peptide mixed with 5 eq. of aldehyde, 1 μM 14-3-3η,. […] After 24 hours, hDMX tracer peptide was added to a concentration of 50 nM to the experiment wells or equal amount of buffers was added to the blanks and the plate was read immediately. […]
# 14-3-3η [2] = molecular target: T1, 14-3-3η; assay: Fluorescence anisotropy (FA) competition assay against tracer hDMX361–374^pSer367*; details: Fig. 2b experiment; hydrazide equilibrated with 5 eq. aldehyde, serially diluted; 50 nM hDMX361–374^pSer367*, 1 μM 14-3-3η, 50 mM NH4OAc, 10 mM aniline, 1 mM DTT, pH 6.5
# Experimental: A fluorescence anisotropy (FA) competition assay was subsequently carried out using conditions previously found suitable for acylhydrazone formation (pH 6.5, 50 mM NH4OAc, 10 mM aniline) with added DTT (1 mM) to supress disulfide formation. hDMX361–369^pSer367Gly-hydrazide was used to compete with a tracer peptide: hDMX361–374^pSer367* for binding to 14-3-3η (Fig S2, ESI ^†). […] Initial attempts to screen in cocktails, established the aldehydes had no affect on their own (Fig. S3, ESI ^†). We then performed an assay where each aldehyde was screened individually with hDMX361–369^pSer367Gly-hydrazide. A decrease in anisotropy can be attributed to a particular hydrazone product, avoiding the additional step of product identification e.g. by HRMS, and, combines the equilibration step for hydrazone formation with 14-3-3η screening (Fig. 2a). […] To confirm the single-concentration results, a competition assay was performed (Fig. 2b). hDMX361–369^pSer367Gly-hydrazide was equilibrated with 5 equivalents of each aldehyde (product formation confirmed by LC-MS, see Fig. S4, ESI ^†), and serially diluted against the tracer peptide (hDMX361–374^pSer367*) and 14-3-3η protein.
# Fig. 2 Dynamic ligation screening based on hDMX361–369^pSer367Gly-hydrazide (a) Anisotropy values of individually screened hydrazones (relative to buffer, zero activity negative control in grey), hDMX361–374^pSer367 (blue) and hDMX361–369^pSer367Gly-hydrazide (red) as positive controls with hits (hDMX361–369^pSer367Gly-hydrazone-FC45 and hDMX361–369^pSer367Gly-hydrazone-SIG17) highlighted in orange boxes (10 μM acetylated hydrazide peptide mixed with 5 eq. of aldehyde, 1 μM 14-3-3η, 50 nM hDMX361–374^pSer367*, 50 mM NH4OAc, 10 mM aniline and 1 mM DTT) (b) competition FA curves for hydrazones taken forward as hits (50 nM hDMX361–374^pSer367*, 1 μM 14-3-3η in 50 mM NH4OAc, 10 mM aniline and 1 mM DTT).
# Fig. 3 Dynamic ligation screening based on hDMX361–370^pSer367Gly-hydrazide (a) anisotropy values of individually screened hydrazones (relative to buffer, zero activity negative control in grey), hDMX361–374^pSer367 (blue) and hDMX361–370^pSer367Gly-hydrazide (red) as positive controls with hits highlighted in black boxes (10 μM acetylated hydrazide peptide mixed with 5 eq. of aldehyde, 1 μM 14-3-3η, 50 nM hDMX361–374^pSer367*, 50 mM NH4OAc, 10 mM aniline and 1 mM DTT) (b) representative competition FA curves for hydrazones taken forwards as hits (50 nM hDMX361–374^pSer367*, 1 μM 14-3-3η in 50 mM NH4OAc, 10 mM aniline and 1 mM DTT). […]
# as §1
# 14-3-3η [3] = molecular target: T1, 14-3-3η; assay: FA direct titration of tracer peptide; details: tracer 50 nM, 10 mM HEPES, 150 mM NaCl, 0.1% Tween 20, 0.1% BSA, pH 7.4; triplicates; read-out: Kd (14-3-3 affinity by FA)
# Experimental: To explore the effect of non-linked fragments, 5 commercially available fragments with similarity to the reduced aldehyde form of COOH4, FC50 and FC32; analogues bearing alcohol or methyl groups in place of the aldehyde (Fig. 3c) were assessed. For consistency a modified tracer peptide was used (hDMX361–370^pSer367Gly* i.e. analogous to the screening peptide but bearing FAM-Ahx). […] Stabilization of the peptide/14-3-3η interaction was observed as the anisotropy increased at the highest fragment concentration, consistent with millimolar affinities (Fig. 3c).
# Figure S7. Direct titration of peptide for analysis of fragment stabilizing effects ( hDMX361- […]
# (1 picture or pasted object on this page, not shown here)
# Peptides were cleaved and side-chain deprotected using ‘Reagent K’ […]
# Direct titration assay: All assays were performed in 384 well plates (each experiment was run in triplicates) and data were collected by Perkin Elmer EnVision 2013 plate reader with excitation at 480 nm (30 nm bandwidth), polarised dichroic mirror at 505 nm and emission at 535 nm (40 nm bandwidth, S and P polarised). […] A ½ fold dilution series was performed in the titration, with plates read after 30 min, 4 h and 20-24 h. […]
# Collected data were processed in Microsoft Excel using the equations bellow. Total intensity I and anisotropy r were calculated using Equations 1 and 2 for each well. […]
Structure (SMILES),Anisotropy of individually screened hydrazones relative to controls (hit call) (14-3-3η [1]),IC50 (14-3-3η [2]) [µM],Kd (14-3-3η [3]) [µM]
CC[C@H](C)[C@H](NC(=O)[C@@H](NC(=O)[C@H](CCCNC(=N)N)NC(=O)[C@H](CCCNC(=N)N)NC(=O)[C@H](CS)NC(=O)[C@H](CC(=O)O)NC(C)=O)[C@@H](C)O)C(=O)N[C@@H](COP(=O)(O)O)C(=O)N[C@@H](C)C(=O)N1CCC[C@H]1C(=O)NCC(=O)N/N=C/c1scc(Br)c1Br [hDMX361–369^pSer367Gly-hydrazone-SIG17] (HELM PEPTIDE1{[ac].D.C.R.R.T.I.[O=C([C@H](COP(=O)(O)O)N[*:1])[*:2]].A.P.G.[Brc1csc(/C=N/N[*:1])c1Br]}$$$$V2.0),hits,13.7 ± 0.5,–
CC[C@H](C)[C@H](NC(=O)[C@@H](NC(=O)[C@H](CCCNC(=N)N)NC(=O)[C@H](CCCNC(=N)N)NC(=O)[C@H](CS)NC(=O)[C@H](CC(=O)O)NC(=O)CCCCCNC(=O)c1ccc2c(c1)C(=O)OC21c2ccc(O)cc2Oc2cc(O)ccc21)[C@@H](C)O)C(=O)N[C@@H](COP(=O)(O)O)C(=O)N[C@@H](C)C(=O)N1CCC[C@H]1C(=O)N[C@H](C(=O)NCC(N)=O)C(C)C [hDMX361–370^pSer367Gly*] ({5FAM-Ahx}-DCRRTI[pS]APVG-NH2),–,–,0.172 ± 0.0093
